Assay results from US7067551B2, “Deacetylase inhibitors” (Novartis AG, priority 2000, dated 2006).
Each block holds one compound with its values, some of them ahead of it.

Legend:
[1] = tested on: H1299 (human lung carcinoma cell); experiment: Monolayer cell growth inhibition, MTS assay; assay type: cell-based; settings: NCI-H1299, H1299, 72 hours compound treatment, lactate salts
Excerpt: (§1) Cell lines H1299 (human lung carcinoma cell) and HCT116 (colon tumor cell) are obtained from the American Type Culture Collection, Rockville, Md. The cell lines are free of Mycoplasma contamination (Rapid Detection System by Gen-Probe, Inc., San Diego, Calif.) and viral contamination (MAP testing by MA BioServices, Inc., Rockville, Md.). The cell lines are propagated and expanded in RPMI 1640 medium containing 10% heat-inactivated FBS (Life Technologies, Grand Island, N.Y.). Cell expansions for implantation are performed in cell factories (NUNC, purchased from Fisher Scientific, Springfield, N.J.). Cells are harvested at 50–90% confluency, washed once with HBSS (Hank's Balanced Salt Solution) containing 10% FBS, and suspended in 100% HBSS.
(§2) Cell proliferation is measured with a commercial MTS kit (Promega, Madision, Wis.) assay using an adaptation of published procedures, for example, that disclosed in Feasibility of drug screening with panels of human tumor cell lines using a microculture tetrazolium assay, Alley M C, et al., Cancer Res. 1988; 48:589–601. Cells are plated in 96-well tissue culture dishes, with top and bottom rows left empty. H1299 and HCT116 cells are suspended in complete media at a density of 5.3×10^3 and 3.6×10^3 cell/mL, respectively, and 190 μl are added per well. Each cell line is added to one half of the plate. Complete medium (200 μL) is added to the top and bottom rows. Twenty-four hours later, 10 μl of MTS solution is added to one of the plates to determine the activity at the time of compound addition (T0). The plate is incubated at 37° C. for 4 hours and the OD490 is measured on a Molecular Devices Thermomax at 490 nm using the Softmax program. The T0 plate serves as a reference for initial activity at the beginning of the experiment.
(§3) Five serial dilutions (1:4) of each compound are made in a 96-deep well plate with the highest concentrations on the edge of plate. Two cell lines are tested with two compounds per plate.0 Ten microliters of each of the five dilutions are added in triplicate and complete medium alone is added to columns six and seven. The plates are incubated at 37° C. for 72 hours. The MTS solution is added (as for the T0 plate) and read four hours later.
(§4) In order to analyze the data, the average background value (media alone) is subtracted from each experimental well; the triplicate values are averaged for each compound dilution. The following formulas are used to calculate percent growth.
Lactate salts of N-hydroxy-3-[4-[[[2-(1H-indol-3-yl)-ethyl]-amino]methyl]phenyl]-2E-2-propenamide (CMD1), N-hydroxy-3-[4-[[(2-hydroxyethyl)[2-(1H-indol-3-yl)ethyl]-amino]methyl]phenyl]-2E-2-propenamide (CMD2), N-hydroxy-3-[4-[[[2-(5-methoxy-1H-indol-3-yl)-ethyl]-amino]methyl]pheny]-2E-2-propenamide (CMD3), N-hydroxy-3-[4-[[[2-(5-fluoro-1H-indol-3-yl)-ethyl]-amino]methyl]phenyl]-2E-2-propenamide (CMD4), N-hydroxy-3-[4-[[[2-(benzofur-3-yl)-ethyl]-amino]methyl]phenyl]-2E-2-propenamide (CMD5) having a purity of higher than 95% are dissolved in pure dimethylsulfoxide (DMSO) to create a stock solution. The stock solution is diluted with 5% dextrose injection, USP, just prior to dosing.

[2] = Body weight change of HCT116 tumor-bearing athymic mice; assay type: in vivo; settings: 34th day, ± SEM
Method: (§5) Outbred athymic (nu/nu) female mice (“Hsd:Athymic Nude-nu” from Harlan Sprague Dawley, Indianapolis, Ind.) are anesthetized with Metofane (Mallinckrodt Veterinary, Inc., Mundelein, Ill.), and 100 μL of the cell suspension containing 1×10^7 cells is injected subcutaneously into the right axillary (lateral) region of each animal. Tumors are allowed to grow for about 20 days until a volume of ˜100 mm^3 is achieved. At this point, mice bearing tumors with acceptable morphology and size are sorted into groups of eight for the study. The sorting process produces groups balanced with respect to mean and range of tumor size. Antitumor activity is expressed as % T/C, comparing differences in tumor volumes for treatment group (T) to vehicle control group (C).
(§6) CMD1 is administered intravenously, once daily 5×/week for three weeks, at doses of 10, 25, 50, or 100 mg/kg. The final DMSO concentration is 10%. Each test group has eight mice. Tumors are measured, and individual animal body weights recorded.
(§7) Example B3 is repeated except the HCT116 colon tumor cell line is used in place of the A549 cell line. The HCT116 cell line is also obtained from American Type Culture Collection, Rockville, Md., and the cell line is free of Mycoplasma contamination and viral contamination.
(§8) Example B4 is repeated except the HCT116 colon tumor cell line is used in place of the A549 cell line. The HCT116 is also obtained from American Type Culture Collection, Rockville, Md., and the cell line is free of Mycoplasma contamination and viral contamination.

[3] = tested on: HCT116 colon tumor cell line; experiment: HCT116 tumor xenograft in athymic mice, antitumor activity; assay type: in vivo; settings: 34th day; for Δ MEAN TUMOR VOLUME: ± SEM
Method: as §1, with “The A549 non-small cell” for “Cell lines H1299 (human”, “human” for “carcinoma cell) and HCT116 (colon”, “cell line is purchased” for “cell) are obtained”, “line is” for “lines are”, “HBSS” for “HBSS (Hank's Balanced Salt Solution)”
as §5, §6, §7, §8

[4] = tested on: HDA partially purified from H1299 cells; experiment: HDA enzyme assay, 3H-acetate release from acetylated histone H4 peptide; assay type: biochemical, human; settings: HDA partially purified from H1299, 37° C. 1.5 hr
Method: HDA is partially purified from H1299, human non-small cell lung carcinoma cells (obtained from American Type Culture Collection, 12301 Parklawn Drive, Rockville, Md. 20852, USA). Cells are grown to 70–80% confluence in RPMI media in the presence of 10% FCS, harvested and lysed by sonication. The lysate is centrifuged at 23,420 g for 10–15 min, the supernatant is applied to a Hiload 26/10 High performance Q-sepharose column (Amersham Pharmacia Biotech), and equilibrated with a buffer containing 20 mM Tris pH8.0, 1 mM EDTA, 10 mM NH4Cl2, 1 mM μ-Mercaptoethanol, 5% glycerol, 2 μg/mL aprotinin, 1 μg/mL leupeptin, and 400 mM PMSF. Proteins are eluted in 4 mL aliquots with a linear gradient from 0–500 mM NaCl in the above buffer at a flow rate of 2.5 mL/min. Each preparation of partially purified HDA enzyme is titrated to determine the optimal amount needed to obtain a signal to noise ratio of at least 5 to 1. […] The compounds are serially diluted in DMSO to generate stocks at 20-fold of the assay concentrations. Final concentrations of compounds in the assay are 10 μM, 2 μM, 400 nM, 80 nM, and 16 nM with the final percentage of DMSO in each enzyme reaction equaling 0.1%. Each concentration of compound is assayed in duplicate. The substrate used in the reaction is a peptide of amino acid sequence, [sequence], corresponding to the twenty-four N-terminal amino acids of human histone H4, biotinylated at the N-terminus and penta-acetylated, at each lysine residue with ^3H-acetate. To initiate the reaction, the substrate is diluted in 10 μL of Buffer A (100 mM Tris pH 8.0, 2 mM EDTA), added to the enzyme mixture and collected at the bottom of the deep well plate by centrifugation for 5 minutes at 1500 rpm. Following centrifugation, the mixture is incubated at 37° C. for 1.5 hr. The reaction is stopped by the addition of 20 μL of the Stop Buffer (0.5N HCl, 0.08M Acetic Acid). At this point, the assay proceeds to the robotic extraction phase or is frozen for several days at −80° C.
The extraction of enzymatically cleaved ^3H-acetate groups from the reaction mixture is achieved with the solvent TBME (t-butyl methyl ether) using the Tomtec Quadra 96 workstation. A program is written to add 200 μL of TBME to a 96 “deep well” plate. The workstation is programmed to aspirate 50 μL of air followed by 200 μL of TBME and finally another 25 μL of air, which is dispensed into the each well of the plate. The contents of the deep well were mixed thoroughly by pipetting 160 μL up and down 10 times. Before addition of TBME to the reaction mixture, it is necessary to “pre-wet” the pipette tips with TBME to prevent the solvent from dripping during the transfer to the deep well plate. The organic and aqueous phases in the deep well are separated by centrifugation at 1500 rpm for 5 min. Opti-Phase Supermix liquid scintillation cocktail (200 μL) (Wallac) is added to each well of the 96-well Trilux plate (Wallac). […] The Trilux plate is covered with clear film and read on a 1450 MicroBeta Trilux liquid scintillation and luminescence counter (Wallac) with a color/chemical quench and dpm correction.
In order to determine the IC50 values, the data are analyzed on a spreadsheet. The analysis requires a correction for the background luminescence that is accomplished by subtracting the dpm values of wells without ^3H substrate from the experimental wells. […]

[5] = Body weight change of A549 tumor-bearing athymic mice; assay type: in vivo; settings: ± SEM
Method: as §5, §6
(§9) Example B3 repeated except CMD2 is used.

A549 = experiment: Annexin V / propidium iodide staining (apoptosis), fluorescence microscopy; assay type: cell-based, human; settings: for cells exhibiting cell surface staining with annexin V: A549, 24 hour exposure; for cells staining with annexin V and/or propidium iodide: A549, 48 hour treatment
Method: (§10) Annexin V binding was used as a marker for the early stages of apoptosis. A549,HCT116 and Normal Dermal Human Fibroblasts (NDHF) cells are treated separately with four compounds (CMD1, CMD2, CMD3 and CMD4) for 24 or 48 hours, stained with annexin V and compared to cells treated similarly with vehicle (DMSO). Cells are examined by fluorescence microscopy. […] Viability is assessed by the counterstain, propidium iodide. Cells detected by red fluorescence are not viable.

HCT116 = experiment: as above; assay type: cell-based, human; settings: for cells exhibiting cell surface staining with annexin V: HCT116, 24 hour exposure; for cells staining with annexin V and/or propidium iodide: HCT116, 48 hour treatment
Method: as §10

[6] = tested on: A549 non-small cell lung human tumor cell line; experiment: A549 tumor xenograft in athymic mice, antitumor activity; assay type: in vivo; settings: for Δ MEAN TUMOR VOLUME: ± SEM
Method: as §1, with “The A549 non-small cell” for “Cell lines H1299 (human”, “human” for “carcinoma cell) and HCT116 (colon”, “cell line is purchased” for “cell) are obtained”, “line is” for “lines are”, “HBSS” for “HBSS (Hank's Balanced Salt Solution)”
as §5, §6, §9

[7] = tested on: HCT116 (colon tumor cell); experiment: Monolayer cell growth inhibition, MTS assay; assay type: cell-based; settings: Homo sapiens, HCT-116, HCT116, 72 hours compound treatment, lactate salts
Excerpt: as §1, §2, §3, §4
The stock solution is diluted with 5% dextrose injection, USP, just prior to dosing.

[8] = tested on: Normal Dermal Human Fibroblasts (NDHF); experiment: Annexin V / propidium iodide staining (apoptosis), fluorescence microscopy; assay type: cell-based; settings: NDHF cells
Method: as §10

[9] = tested on: HCT116 colon tumor cell line; experiment: HCT116 tumor xenograft in athymic mice, antitumor activity; assay type: in vivo; settings: Table B5, HCT116, 50 mg/kg i.v., 34th day, seven mice
[10] = Table B4, A549, 25 mg/kg, Example B3 repeated
[11] = Table B4, A549, 50 mg/kg, Example B3 repeated
[12] = Table B5, HCT116, 100 mg/kg i.v.
[13] = A549, 10 mg/kg i.v. once daily 5×/week for three weeks, 41st day
[14] = A549, 25 mg/kg i.v. once daily 5×/week for three weeks, 41st day
[15] = A549, 50 mg/kg i.v. once daily 5×/week for three weeks, 41st day
[16] = A549, 100 mg/kg i.v. once daily 5×/week for three weeks, 41st day

Compound: COc1ccc2[nH]cc(CCNCc3ccc(/C=C/C(=O)NO)cc3)c2c1 [CMD3, N-hydroxy-3-[4-[[[2-(5-methoxy-1H-indol-3-yl)-ethyl]-amino]methyl]pheny]-2E-2-propenamide]
IC50 [1]: 580 nM
IC50 [4]: 14 nM
cells exhibiting cell surface staining with annexin V (A549): A small percentage
cells staining with annexin V and/or propidium iodide (A549): the majority
cells exhibiting cell surface staining with annexin V (HCT116): the majority
cells staining with annexin V and/or propidium iodide (HCT116): the majority
IC50 [7]: 30 nM
annexin V staining ([8]; 24 hour exposure): do not show noticeable annexin V staining
annexin V staining ([8]; 48 hour): limited annexin V staining

Compound: Nc1ccccc1NC(=O)c1ccc(CNC(=O)OCc2cccnc2)cc1 [CMDC, reference compound]
IC50 [1]: 6800 nM

Compound: O=C(/C=C/c1ccc(CNCCc2coc3ccccc23)cc1)NO [CMD5, N-hydroxy-3-[4-[[[2-(benzofur-3-yl)-ethyl]-amino]methyl]phenyl]-2E-2-propenamide]
IC50 [1]: 180 nM
IC50 [4]: 16 nM
IC50 [7]: 30 nM

Further lines, with some results ahead:

IC50 [1]: 150 nM
IC50 [4]: 63 nM
IC50 [7]: 10 nM
Compound: O=C(/C=C/c1ccc(CN(CCO)CCc2c[nH]c3ccccc23)cc1)NO [CMD2, N-hydroxy-3-[4-[[(2-hydroxyethyl)[2-(1H-indol-3-yl)ethyl]-amino]methyl]phenyl]-2E-2-propenamide]
Δ % BODY WEIGHT ([2]; Table B6, HCT116, 10 mg/kg): −10.2 ± 0.5%
Δ % BODY WEIGHT ([2]; Table B6, HCT116, 25 mg/kg): −7.0 ± 0.2%
Δ % BODY WEIGHT ([2]; Table B6, HCT116, 50 mg/kg): −7.3 ± 0.3%
Δ % BODY WEIGHT ([2]; Table B6, HCT116, 100 mg/kg): −9.4 ± 0.4%
% T/C ([3]; Table B6, HCT116, 10 mg/kg): 56%
Δ MEAN TUMOR VOLUME ([3]; Table B6, HCT116, 10 mg/kg): 422 ± 75 mm^3
% T/C ([3]; Table B6, HCT116, 25 mg/kg): 40%
Δ MEAN TUMOR VOLUME ([3]; Table B6, HCT116, 25 mg/kg): 305 ± 47 mm^3
% T/C ([3]; Table B6, HCT116, 50 mg/kg): 13%
Δ MEAN TUMOR VOLUME ([3]; Table B6, HCT116, 50 mg/kg): 97 ± 30 mm^3
% T/C ([3]; Table B6, HCT116, 100 mg/kg): 17%
Δ MEAN TUMOR VOLUME ([3]; Table B6, HCT116, 100 mg/kg): 132 ± 30 mm^3
Δ % BODY WEIGHT [5, 10]: −4.2 ± 2.5%
Δ % BODY WEIGHT [5, 11]: −2.9 ± 1.5%
cells exhibiting cell surface staining with annexin V (A549): A small percentage
cells staining with annexin V and/or propidium iodide (A549): the majority
cells exhibiting cell surface staining with annexin V (HCT116): the majority
cells staining with annexin V and/or propidium iodide (HCT116): the majority
% T/C [6, 10]: 27%
Δ MEAN TUMOR VOLUME [6, 10]: 37 ± 16 mm^3
% T/C [6, 11]: 21%
Δ MEAN TUMOR VOLUME [6, 11]: 29 ± 15 mm^3
annexin V staining ([8]; 24 hour exposure): do not show noticeable annexin V staining

IC50 [1]: 280 nM
IC50 [4]: 14 nM
IC50 [7]: 30 nM
Compound: O=C(/C=C/c1ccc(CNCCc2c[nH]c3ccc(F)cc23)cc1)NO [CMD4, N-hydroxy-3-[4-[[[2-(5-fluoro-1H-indol-3-yl)-ethyl]-amino]methyl]phenyl]-2E-2-propenamide]
cells exhibiting cell surface staining with annexin V (A549): A small percentage
cells staining with annexin V and/or propidium iodide (A549): the majority
cells exhibiting cell surface staining with annexin V (HCT116): the majority
cells staining with annexin V and/or propidium iodide (HCT116): the majority
annexin V staining ([8]; 24 hour exposure): do not show noticeable annexin V staining

IC50 [1]: 400 nM
IC50 [4]: 32 nM
IC50 [7]: 30 nM
Compound: O=C(/C=C/c1ccc(CNCCc2c[nH]c3ccccc23)cc1)NO [CMD1, N-hydroxy-3-[4-[[[2-(1H-indol-3-yl)-ethyl]-amino]methyl]phenyl]-2E-2-propenamide]
Δ % BODY WEIGHT ([2]; Table B5, HCT116, 50 mg/kg i.v., seven mice): −7.4 ± 0.8%
Δ % BODY WEIGHT [2, 12]: −3.2 ± 0.4%
% T/C [3, 12]: 18%
Δ MEAN TUMOR VOLUME [3, 12]: 140 ± 38 mm^3
% T/C [9]: 25%
Δ MEAN TUMOR VOLUME ([9]; ± SEM): 186 ± 40 mm^3
Δ % BODY WEIGHT [5, 13]: +1.3 ± 0.3%
Δ % BODY WEIGHT [5, 14]: −0.9 ± 0.3%
Δ % BODY WEIGHT [5, 15]: −0.4 ± 0.3%
Δ % BODY WEIGHT [5, 16]: +0.4 ± 0.3%
cells exhibiting cell surface staining with annexin V (A549): A small percentage
cells staining with annexin V and/or propidium iodide (A549): the majority
cells exhibiting cell surface staining with annexin V (HCT116): the majority
cells staining with annexin V and/or propidium iodide (HCT116): the majority
% T/C [6, 13]: 32%
Δ MEAN TUMOR VOLUME [6, 13]: 121 ± 27 mm^3
% T/C [6, 14]: 20%
Δ MEAN TUMOR VOLUME [6, 14]: 77 ± 32 mm^3
% T/C [6, 15]: 15%
Δ MEAN TUMOR VOLUME [6, 15]: 57 ± 10 mm^3
% T/C [6, 16]: 7%
Δ MEAN TUMOR VOLUME [6, 16]: 28 ± 25 mm^3
annexin V staining ([8]; 24 hour exposure): do not show noticeable annexin V staining
